Laboratory results reported in patent US5760036A, “Aminediol protease inhibitors” (E. R. Squibb & Sons, Inc., priority 1995, dated 1998).
Like-named read-outs stand apart in the source and are kept apart here.

Columns and labels:
[1] = test system: RF strain of HIV (CEM-SS cells); assay: Cell Culture Anti-HIV Activity (cell viability, formazan); assay type: cell-based; conditions: Human immunodeficiency virus 1, CEM-SS, 144 h, CEM-SS cells, RF strain of HIV, multiplicity of infection 0.04, 6 days at 37° C., 450 nm; read-out: HIV (CEM Cells) IC50
In short: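 Half-log compound dilutions added to CEM-SS cells (5000/well) carrying HIV RF (MOI 0.04), 6 days, 37° C. Cell protection measured as formazan from tetrazolium, A450. IC50: drug level restoring infected-cell formazan to 50% of the uninfected untreated control.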

HIV protease = target: T1, HIV protease (Human immunodeficiency virus type 1 group M subtype B, UniProt P04585); assay: HIV Protease Assay; assay type: biochemical
T1 construct: and purified protease
In short: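 At a single final concentration of 10 μM (4% DMSO), inhibitors were added to a 30-minute, 37° C reaction of purified enzyme with 450 μM H2N-Val-Ser-Gln-Asn-(β-naphthyl-alanine)-Pro-Val-Ile-OH at pH 5.5 (sodium acetate, BSA). Hydrolysis was quantified by reverse-phase HPLC with 220 nm detection after acid quench.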

[2] = pH 5.5, 10 μM inhibitor, 4% DMSO, 450 μM substrate, pH 5.5, 30 minutes at 37° C., RP-HPLC, read-out: HIV Protease % Inhibition at 10 μM

| SMILES | IC50 [1] [µM] | inhibition at 10 µM (HIV protease; [2]) [%] | inhibition at 10 µM (HIV protease; pH 5.5, read-out: HIV Protease % Inhibition at 10 μM) [%] |
| --- | --- | --- | --- |
| CC(C)[C@H](NC(=O)OCc1ccccc1)C(=O)N[C@@H](Cc1ccccc1)[C@H](O)CNC[C@@H](O)[C@H](Cc1ccccc1)NC(=O)[C@H](CC(N)=O)NC(=O)OC(C)(C)C [Compound 121, [S-[1R*,2S*(2S*.3R*)]]-N^2-[(1-Dimethylethoxy)carbonyl]-N-[2-hydroxy-3-[[2-hydroxy-4-phenyl-3-[[N-[(phenylmethoxy)carbonyl]-L-valyl]amino]butyl]amino]-1-(phenylmethyl)-propyl]-L-asparaginamide] | > 0.3 | 73 | – |
| COC(=O)N[C@H](C(=O)N[C@@H](Cc1ccccc1)[C@H](O)CNC[C@@H](O)[C@H](Cc1ccc(OCCc2ccccn2)cc1)NC(=O)OC(C)(C)C)C(C)(C)C (relative stereo) [Compound 327, [1R*,2S*(2S*,3R*)-N-[3-[[3-[[(1,1-Dimethylethoxy)carbonyl]amino]-2-hydroxy-4-[4-[2-(2-pyridinyl)ethoxyl]phenyl]butyl]amino]-2-hydroxy-1-(phenylmethyl)propyl]-N^2-(methoxycarbonyl)-3-methyl-L-valinamide] | 0.05 | 99 | – |
| CN(C(=O)OC(C)(C)C)[C@@H](Cc1ccccc1)[C@H](O)CNC[C@@H](O)[C@H](Cc1ccccc1)NC(=O)OC(C)(C)C [Compound 132, [1S-[1R*,2S*(2S*,3R*)]]-3-[[(1,1-Dimethylethoxy)carbonyl]amino]-2-hydroxy-4-phenylbutyl]amino]-2-hydroxy-1-(phenylmethyl)-propyl]methylcarbamic acid, 1,1-dimethylethyl ester] | > 3 | 65 | – |
| CC(C)(C)[C@@](C)(O)C(=O)N[C@@H](Cc1ccccc1)[C@H](O)CNC[C@@H](O)[C@H](Cc1ccccc1)NC(=O)[C@](C)(O)C(C)(C)C [Compound 344, [2R-[R*(R*,S*)]]-N,N'-[Iminobis[2-hydroxy-l-(phenylmethyl)-3,1-propanediyl]]bis[2-hydroxy-2,3,3-trimethylbutaneamide]] | 0.03 | 99 | – |
| CC(C)[C@H](NC(=O)CC(O)CO)C(=O)N[C@@H](Cc1ccccc1)[C@H](O)CNC[C@@H](O)[C@H](Cc1ccccc1)NC(=O)OC(C)(C)C (relative stereo) [Compound 254, [1R*,2S*(2S*,3R*)]-N-[3-[[3-[[(1,1-Dimethylethoxy)carbonyl]amino]-2-hydroxy-4-phenylbutyl]amino]-2-hydroxy-1-(phenylmethyl)propyl]-N^2-(3,4-dihydroxy-1-oxobutyl)-L-valinamide] | 17 | 98 | – |
| CC(C)(C)OC(=O)N[C@@H](Cc1ccccc1)[C@H](O)CNC[C@@H](O)[C@H](Cc1ccccc1)NC(=O)[C@](C)(O)C(C)(C)C [Compound 262, [1S-[1R*,2S*[2S*,3R*(S*)]]]-[3-[[3-[(2-Hydroxy-2,3,3-trimethyl-1-oxobutyl)amino]-2-hydroxy-4-phenylbutyl]amino]-2-hydroxy-1-(phenylmethyl)propyl]carbamic acid, 1.1-dimethylethyl ester] | 0.03 | – | 100 |
| CC(C)(C)OC(=O)N[C@@H](Cc1ccccc1)[C@H](O)CNC[C@@H](O)[C@H](Cc1ccccc1)NC(=O)[C@@H](NC(=O)[C@H](Cc1ccccc1)NC=O)C(C)(C)C (relative stereo) [Compound 285, [1R*,2S*(2S*,3R*)]-N-[3-[[(1,1-Dimethylethoxy)carbonyl]amino]-2-hydroxy-4-phenylbutyl]amino]-2-hydroxy-1-(phenylmethyl)propyl]-N^2-(N-formyl-L-phenylalanyl)-3-methyl-L-valinamide] | 0.65 | 100 | – |
| CN(CC(=O)[C@H](Cc1ccccc1)NC(=O)OC(C)(C)C)C[C@@H](O)[C@H](Cc1ccccc1)NC(=O)OC(C)(C)C [Compound 197, [1S-[1R*(2S*,3R*)]]-[3-[[3-[[(1,1-Dimethylethoxy)carbonyl]-amino]-2-hydroxy-4-phenylbutyl]-methylamino]-2-oxo-1-(phenylmethyl)propyl]carbamic acid, 1,1-dimethylethyl ester] | > 10 | 10 | – |
| CC(C)(C)OC(=O)N[C@@H](Cc1ccccc1)[C@H](O)CNC[C@@H](O)[C@H](Cc1c[nH]c2ccccc12)NC(=O)OC(C)(C)C [Compound 23, [1S-[1R*,2S*(2S*,3R*)]]-[3-[[3-[[(1,1-Dimethylethoxy)carbonyl]amino]-2-hydroxy-4-(1H-indol-3-ylmethyl)butyl]amino]-2-hydroxy-1-(phenylmethyl)propyl]carbamic acid, 1,1-dimethylethyl ester] | 0.45 | 98 | – |
| CC(C)(C)OC(=O)N[C@@H](Cc1ccccc1)[C@H](O)CNC[C@@H](O)[C@H](Cc1ccc(OCCN2CCOC2=O)cc1)NC(=O)OC(C)(C)C [Compound 343, [1S-[1R*,2S*(2S*,3R*)]]-[1-[[[3-[[(1,1-Dimethylethoxy)carbonyl]amino]-2-hydroxy-4-[4-[2-(2-oxo-3-oxazolidinyl)ethoxy]phenyl]butyl]amino]-2-hydroxy-1-(phenylmethyl)propyl]carbamic acid, 1,1-dimethylethyl ester] | 0.05 | 99 | – |
| CC(C)(C)OC(=O)N[C@@H](Cc1ccccc1)[C@H](O)CNC[C@@H](O)[C@H](Cc1ccc(OCCc2ccccn2)cc1)NC(=O)OC(C)(C)C [Compound 178, [1S-[1R*,2S*(2S*,3R*)]]-[3-[[3-[[(1,1-Dimethylethoxy)carbonyl]amino]-2-hydroxy-4-(4-[2-(2-pyridinyl)ethoxy]phenyl]butyl]amino]-2-hydroxy-1-(phenylmethyl)-propyl]carbamic acid, 1,1-dimethyl-ethyl ester] | 0.03 | 99 | – |
| CC(C)[C@H](NC(=O)OCC1=Cc2ccccc2C1)C(=O)N[C@@H](Cc1ccccc1)[C@H](O)CNC[C@@H](O)[C@H](Cc1ccccc1)NC(=O)OC(C)(C)C (relative stereo) [Compound 280, [1R*, 2S* (2S*, 3R*)]-N-[3-[[3-[[(1,1-Dimethylethoxy)carbonyl]amino]-2-hydroxy-4-phenylbutyl]amino]-2-hydroxy-1-(phenylmethyl)propyl]-N^2-[[(1H-inden-2-yl)methoxy]carbonyl]-L-valinamide] | 0.05 | 100 | – |
| CC(C)(C)OC(=O)N[C@@H](Cc1ccccc1)[C@H](O)CNC[C@@H](O)[C@H](Cc1ccccc1)NC(=O)OC(C)(C)[C@H](O)CO [Compound 228, [1S-(1R*,2S*),(S*)]-[Iminobis[2-hydroxy-1-(phenylmethyl)-3,1-propanediyl]]biscarbamic acid, 2,3-dihydroxy-1,1-dimethylpropyl 1,1-dimethylethyl ester] | 0.7 | 98 | – |
| CC(C)[C@@H](NC(=O)OCc1ccccc1)C(=O)N[C@@H](Cc1ccccc1)[C@H](O)CNC[C@@H](O)[C@H](Cc1ccccc1)NC(=O)OC(C)(C)C [Compound 71, [R-[1S*,2R*(2R*, 3S*)]]-N-[3-[[3-[[(1,1-Dimethylethoxy)carbonyllamino]2-hydroxy-4-phenylbutyl]amino]-2-hydroxy-1-phenylmethyl)propyl]-N^2-[(phenylmethoxy)-carbonyl]-D-valinamide] | 1.2 | 58 | – |
| C[C@H](O)C(C)(C)OC(=O)N[C@@H](Cc1ccccc1)[C@H](O)CNC[C@@H](O)[C@H](Cc1ccccc1)NC(=O)OC(C)(C)C [Compound 232, [1S-(1R*,2S*),(R*)]-[Iminobis[2-hydroxy-1-(phenylmethyl)-3,1-propanediyl]]biscarbamic acid, 1,1-dimethylethyl 2-hydroxy-1,1-dimethylpropyl ester] | 0.05 | 99 | – |
| CC(C)(C)OC(=O)N[C@@H](Cc1ccccc1)[C@H](O)CNC[C@@H](O)[C@H](Cc1ccccc1)NC(=O)OC(C)(C)[C@@H](O)CO [Compound 227, [1S-(1R*,2S*),(R*)]-[Iminobis[2-hydroxy-1-(phenylmethyl)-3,1-propanediyl]]biscarbamic acid, 2,3-dihydroxy-1,1-dimethylpropyl 1,1-dimethylethyl ester] | 0.9 | 99 | – |
| COC(=O)N[C@H](C(=O)N[C@@H](Cc1ccccc1)[C@H](O)CNC[C@@H](O)[C@H](Cc1ccccc1)NC(=O)[C@@H](NC(=O)OC)C(C)(C)C)C(C)(C)C (relative stereo) [Compound 324, 1S-(1S*,2R*)-N, N'-Iminobis[2-hydroxy-1-(phenylmethyl)-3,1-propanediyl]bis(imino)bis[1-(1,1-dimethylethyl)-2-oxo-2,1-ethanediyl]]biscarbamic acid, dimethyl ester] | 0.22 | 100 | – |
| CC(C)(C)OC(=O)N[C@@H](Cc1ccccc1)[C@H](O)CNC[C@@H](O)[C@H](Cc1ccccc1)NC(=O)OC(C)(C)CC#CCc1ccccc1 [Compound 167, [1S-(1R*,2S*))]-[Iminobis[2-hydroxy-1-(phenylmethyl)-3,1-propanediyl]biscarbamic acid, 1,1-dimethylethyl 1,1]-dimethyl-5-phenyl-3-pentynyl ester] | > 1.8 | 97 | – |
